Reference: US20230108906A1, “SUBSTITUTED BICYCLIC AND TRICYCLIC UREAS AND AMIDES, ANALOGUES THEREOF, AND METHODS USING SAME” (Arbutus Biopharma Corporation, priority 2019, published 2023)
pEC50: −log10 of the molar value.

Each compound was assayed on HBV rcDNA in HepDE19 cells (assay: HepDE19 assay with bDNA quantitation of HBV rcDNA). Details: Hepatitis B virus, HepDE19, 168 h, inhibition of rcDNA formation in HepDE19 cells (HepG2 derived), Tet-free medium, 7 day incubation, Quantigene 2.0 bDNA readout, top concentration 25 μM; read-out: DE-19bDNA EC50.
Format: cell-based, hepatitis B virus (HBV)
Procedure: HepDE19 Assay with bDNA Quantitation of HBV rcDNA:
HepDE19 cell culture system is a HepG2 (human hepatocarcinoma) derived cell line that supports HBV DNA replication and cccDNA formation in a tetracycline (Tet)-regulated manner and produces HBV rcDNA and a detectable reporter molecule dependent on the production and maintenance of cccDNA (Guo, et al., 2007, J. Virol. 81:12472-12484).
HepDE19 (50,000 cells/well) were plated in 96-well collagen-coated tissue-culture treated microtiter plates in DMEM/F12 medium supplemented with 10% fetal bovine serum, 1% penicillin-streptomycin and 1 μg/mL tetracycline and incubated in a humidified incubator at 37° C. and 5% CO2 overnight. Next day, the cells were switched to fresh medium without tetracycline and incubated for 4 hours at 37° C. and 5% CO2. The cells were treated with fresh Tet-free medium with compounds at concentrations starting at 25 μM and a serial, […], 8-point, titration series in duplicate. The final DMSO concentration in the assay was 0.5%. The plates were incubated for 7 days in a humidified incubator at 37° C. and 5% CO2. Following a 7 day-incubation, the level of rcDNA present in the inhibitor-treated wells was measured using a Quantigene 2.0 bDNA assay kit (Affymetrix, Santa Clara, Calif.) with HBV specific custom probe set and manufacturers instructions. Concurrently, the effect of compounds on cell viability was assessed using replicate plates, plated at a density of 5,000 cells/well and incubated for 4 days, to determine the ATP content as a measure of cell viability using the cell-titer glo reagent (CTG; Promega Corporation, Madison, Wis.) as per manufacturer's instructions. The plates were read using a Victor luminescence plate reader (PerkinElmer Model 1420 Multilabel counter) and the relative luminescence units (RLU) data generated from each well was calculated as % inhibition of the untreated control wells and analyzed using XL-Fit module in Microsoft Excel to determine EC50 and EC90 (bDNA) and CC50 (CTG) values using a 4-parameter curve fitting algorithm.
Representative compounds of the disclosure were tested for their abilities to inhibit formation of relaxed circular DNA (rcDNA) in a HepDE19 assay, as described elsewhere herein.

| SMILES | pEC50 |
| --- | --- |
| CN(C(=O)Nc1ccc(F)c(C(F)F)c1)[C@H]1COCc2[nH]c(=O)c3cc(F)c(F)cc3c21 (single isomer, unassigned) [Compound 125] | 6.31 |
| CN(C(=O)Nc1ccc(F)c(C#N)c1)[C@@H]1COCc2[nH]c(=O)c3cc(F)ccc3c21 (single isomer, unassigned) [Compound 64] | 7.70 |
| CN(C(=O)Nc1ccc(F)c(C#N)c1)C1CS(=O)(=O)Cc2[nH]c(=O)c3cc(F)ccc3c21 (racemic) [Compound 215, 3-(3-Cyano-4-fluorophenyl)-1-(8-fluoro-3,3-dioxido-6-oxo-1,4,5,6-tetrahydro-2H-thiopyrano[3,4-c]isoquinolin-1-yl)-1-methylurea] | ≤ 4.60 |
| CN(C(=O)Nc1ccc(F)c(Cl)c1)C1CCCCc2[nH]c(=O)c3ccccc3c21 (stereo not shown) [Compound 21, 3-(3-Chloro-4-fluorophenyl)-1-methyl-1-(5-oxo-6,7,8,9,10,11-hexahydro-5H-cyclohepta[c]isoquinolin-11-yl)urea] | 6.82 |
| CN(C(=O)Nc1ccc(F)c(Cl)c1)C1CCCc2[nH]c(=O)c3c(F)c(F)ccc3c21 (stereo not shown) [Compound 28, 3-(3-Chloro-4-fluorophenyl)-1-(7,8-difluoro-6-oxo-1,2,3,4,5,6-hexahydrophenanthridin-1-yl)-1-methylurea] | 6.36 |
| CN1Cc2[nH]c(=O)c3cc(F)c(F)cc3c2C(N(C)C(=O)Nc2ccc(F)c(C#N)c2)C1 (single isomer, unassigned) [Compound 174, 3-(3-Cyano-4-fluorophenyl)-1-(8,9-difluoro-3-methyl-6-oxo-1,2,3,4,5,6-hexahydrobenzo[c][1,7]naphthyridin-1-yl)-1-methylurea] | 6.51 |
| CN(C(=O)Nc1ccc(F)c(Cl)c1)C1COC(=O)c2[nH]c(=O)c3cc(F)c(F)cc3c21 (racemic) [Compound 152, 3-(3-Chloro-4-Fluorophenyl)-1-(8,9-difluoro-4,6-dioxo-1,4,5,6-tetrahydro-2H-pyrano[3,4-c]isoquinolin-1-yl)-1-methylurea] | 7.70 |
| CN(C(=O)Nc1ccc(F)c(C(F)F)c1)[C@@H]1COCc2c1c1cc(F)c(F)cc1c(=O)n2CCN [Compound 253, (S)-1-(5-(2-Aminoethyl)-8,9-difluoro-6-oxo-1,4,5,6-tetrahydro-2H-pyrano[3,4-c]isoquinolin-1-yl)-3-(3-(difluoromethyl)-4-fluorophenyl)-1-methylurea] | 6.04 |
| CN(C(=O)Nc1ccc(F)c(Cl)c1)[C@H]1COCc2[nH]c(=O)c3cc(F)ccc3c21 (single isomer, unassigned) [Compound 40] | 6.00 |

Same assay, conditions: inhibition of rcDNA formation in HepDE19 cells (HepG2 derived), Tet-free medium, 7 day incubation, Quantigene 2.0 bDNA readout, top concentration 25 μM; read-out: DE-19bDNA EC50

| SMILES | pEC50 |
| --- | --- |
| CCN(C(=O)Nc1ccc(F)c(Cl)c1)C1CCCc2[nH]c(=O)c3c(c21)CCCC3 (single isomer, unassigned) [Compound 53, 3-(3-Chloro-4-fluorophenyl)-1-ethyl-1-(6-oxo-1,2,3,4,5,6,7,8,9,10-decahydrophenanthridin-1-yl)urea] | 5.59 |
| CN(C(=O)Nc1ccc(F)c(C(F)F)c1)C1CNCc2[nH]c(=O)c3cc(F)c(F)cc3c21 (single isomer, unassigned) [Compound 217, 1-(8,9-Difluoro-6-oxo-1,2,3,4,5,6-hexahydrobenzo[c][1,7]naphthyridin-1-yl)-3-(3-(difluoromethyl)-4-fluorophenyl)-1-methylurea] | 7.40 |
| CN(C(=O)Nc1ccc(F)c(C#N)c1)C1C[S+]([O-])Cc2[nH]c(=O)c3cc(F)c(F)cc3c21 (single isomer, unassigned) [Compound 214, 3-(3-Cyano-4-fluorophenyl)-1-(8,9-difluoro-3-oxido-6-oxo-1,4,5,6-tetrahydro-2H-thiopyrano[3,4-c]isoquinolin-1-yl)-1-methylurea] | 4.82 |
| NS(=O)(=O)CCN(C(=O)Nc1ccc(F)c(Cl)c1)C1COCc2[nH]c(=O)c3cc(F)c(F)cc3c21 (single isomer, unassigned) [Compound 136, 2-(3-(3-Chloro-4-fluorophenyl)-1-(8,9-difluoro-6-oxo-1,4,5,6-tetrahydro-2H-pyrano[3,4-c]isoquinolin-1-yl)ureido)ethane-1-sulfonamide] | 5.54 |
| CN(C(=O)Nc1ccc(F)c(C#N)c1)C1CS(=O)(=O)Cc2[nH]c(=O)c3cc(F)c(F)cc3c21 (single isomer, unassigned) [Compound 206, 3-(3-Cyano-4-fluorophenyl)-1-(8,9-difluoro-3,3-dioxido-6-oxo-1,4,5,6-tetrahydro-2H-thiopyrano[3,4-c]isoquinolin-1-yl)-1-methylurea] | 5.32 |
| CN(C(=O)Nc1cc(Cl)c(F)c(Cl)c1)C1COCc2[nH]c(=O)c3cc(F)ccc3c21 (single isomer, unassigned) [Compound 98, 3-(3,5-Dichloro-4-fluorophenyl)-1-(8-fluoro-6-oxo-1,4,5,6-tetrahydro-2H-pyrano[3,4-c]isoquinolin-1-yl)-1-methylurea] | 7.52 |
| CN(C(=O)Nc1ccc(F)c(Cl)c1)C1COCc2nc(NCCO)c3cc(F)c(F)cc3c21 (single isomer, unassigned) [Compound 245, 3-(3-Chloro-4-fluorophenyl)-1-(8,9-difluoro-6-((2-hydroxyethyl)amino)-1,4-dihydro-2H-pyrano[3,4-c]isoquinolin-1-yl)-1-methylurea] | 5.38 |
| CC(C)CN(C(=O)Nc1cc(F)c(F)c(F)c1)C1COCc2[nH]c(=O)c3cc(F)ccc3c21 (single isomer, unassigned) [Compound 113, 1-(8-Fluoro-6-oxo-2,4,5,6-tetrahydro-1H-pyrano[3,4-c]isoquinolin-1-yl)-1-isobutyl-3-(3,4,5-trifluorophenyl)urea] | 7.70 |
| Cc1cc(NC(=O)N(CC(C)C)C2COCc3[nH]c(=O)c4cc(F)ccc4c32)ccc1F (single isomer, unassigned) [Compound 132, 3-(4-Fluoro-3-methylphenyl)-1-(8-fluoro-6-oxo-1,4,5,6-tetrahydro-2H-pyrano[3,4-c]isoquinolin-1-yl)-1-isobutylurea] | 6.82 |
| CN(C(=O)Nc1ccc(F)c(Cl)c1)C1CCCc2[nH]c(=O)c3c(c21)CCCC3 (single isomer, unassigned) [Compound 46, 3-(3-Chloro-4-fluorophenyl)-1-methyl-1-(6-oxo-1,2,3,4,5,6,7,8,9,10-decahydrophenanthridin-1-yl)urea] | 5.92 |
| CN(C(=O)Nc1ccc(F)c(Cl)c1)C1C[S+]([O-])Cc2[nH]c(=O)c3cc(F)c(F)cc3c21 (single isomer, unassigned) [Compound 209, 3-(3-Chloro-4-fluorophenyl)-1-(8,9-difluoro-3-oxido-6-oxo-1,4,5,6-tetrahydro-2H-thiopyrano[3,4-c]isoquinolin-1-yl)-1-methylurea] | 6.15 |
| CC(C)CN(C(=O)Nc1ccc(F)c(C#N)c1)C1COCc2[nH]c(=O)c3cc(F)ccc3c21 (single isomer, unassigned) [Compound 116, 3-(3-Cyano-4-fluorophenyl)-1-(8-fluoro-6-oxo-1,4,5,6-tetrahydro-2H-pyrano[3,4-c]isoquinolin-1-yl)-1-isobutylurea] | 6.64 |
| CN(C(=O)Nc1ccc(F)c(Cl)c1)C1C[S+]([O-])Cc2[nH]c(=O)c3cc(F)c(F)cc3c21 (single isomer, unassigned) [Compound 207, 3-(3-Chloro-4-fluorophenyl)-1-(8,9-difluoro-3-oxido-6-oxo-1,4,5,6-tetrahydro-2H-thiopyrano[3,4-c]isoquinolin-1-yl)-1-methylurea] | 5.89 |
